Results from the NIST ThermoML archive (doi:10.1021/je500784s).
Several values for one entry are separate records, joined by “and”; a condition that tells them apart may be missing. Equal values may be shown once.

Key:
[1] = Molar enthalpy of transition or fusion; settings: Crystal; DSC
[2] = for vapor or sublimation pressure: Transpiration method; for Normal melting temperature: DTA

Cc1ccc(I)cc1 [4-iodotoluene]
Settings | Molar enthalpy of transition or fusion [kcal/mol]
[1] | 3.59

[2]
Settings | vapor or sublimation pressure
279.5 K, Crystal | 0.00537 kPa
283.3 K, Crystal | 0.008 kPa
286.3 K, Crystal | 0.01101 kPa
289.4 K, Crystal | 0.01456 kPa
293.2 K, Crystal | 0.0205 kPa and 0.02183 kPa
298.1 K, Crystal | 0.0335 kPa
303 K, Crystal | 0.0526 kPa
308 K, Liquid | 0.08115 kPa
311 K, Liquid | 0.09922 kPa
315 K, Liquid | 0.1261 kPa
319.1 K, Liquid | 0.1599 kPa
323.2 K, Liquid | 0.2025 kPa
328.1 K, Liquid | 0.2776 kPa
332.9 K, Liquid | 0.3665 kPa

Settings | Normal melting temperature [°C]
[2], Crystal | 34.4

Cc1ccc(I)c(C)c1 [1-iodo-2,4-dimethylbenzene]
[2], Liquid
Settings | vapor or sublimation pressure
293.5 K | 0.00972 kPa
298.4 K | 0.01434 kPa
301.4 K | 0.01827 kPa
303.4 K | 0.02175 kPa
306.3 K | 0.02654 kPa
308.3 K | 0.03017 kPa
311.3 K | 0.03876 kPa
313.3 K | 0.04322 kPa
316.4 K | 0.05407 kPa
318.6 K | 0.06284 kPa
321.4 K | 0.07438 kPa
323.4 K | 0.08333 kPa
326.4 K | 0.1058 kPa and 0.1032 kPa
328.5 K | 0.1158 kPa

Ic1ccccc1 [iodobenzene]
[2], Liquid
Settings | vapor or sublimation pressure [kPa]
283.8 K | 0.05269
286.8 K | 0.06386
289.9 K | 0.08034
293 K | 0.09644
294 K | 0.1029
296.8 K | 0.1261
299.6 K | 0.1487
302.6 K | 0.1853
305.7 K | 0.2226
308.7 K | 0.2722
311.8 K | 0.3239
314.6 K | 0.3944

Cc1ccccc1I [1-iodo-2-methylbenzene]
[2], Liquid
Settings | vapor or sublimation pressure [kPa]
283.2 K | 0.01623
288.2 K | 0.02387
293.2 K | 0.0355
301.2 K | 0.06212
304.2 K | 0.07615
307.4 K | 0.0943
310.3 K | 0.1131
313.1 K | 0.1354
316.2 K | 0.1655
319.3 K | 0.1983
322.1 K | 0.2325
325.1 K | 0.2843

Cc1cccc(I)c1 [1-iodo-3-methylbenzene]
[2], Liquid
Settings | vapor or sublimation pressure
275.7 K | 0.00715 kPa
279.3 K | 0.00936 kPa
281.9 K | 0.01131 kPa
283.5 K | 0.01241 kPa
286.4 K | 0.0157 kPa
289.3 K | 0.01945 kPa and 0.01996 kPa
293.1 K | 0.02757 kPa
293.2 K | 0.02683 kPa
298.1 K | 0.0403 kPa
298.2 K | 0.03887 kPa
302.9 K | 0.05424 kPa and 0.05679 kPa
308 K | 0.07665 kPa and 0.07718 kPa
313.1 K | 0.1065 kPa

Cc1ccc(Br)cc1 [4-bromotoluene]
Settings | Molar enthalpy of transition or fusion [kcal/mol]
[1] | 3.56

[2]
Settings | vapor or sublimation pressure [kPa]
274.5 K, Crystal | 0.01409
277.2 K, Crystal | 0.01853
278.3 K, Crystal | 0.02013
280.2 K, Crystal | 0.02439
282.2 K, Crystal | 0.02935
283.2 K, Crystal | 0.0328
285.5 K, Crystal | 0.04128
286.2 K, Crystal | 0.04379
288.3 K, Crystal | 0.05178
289.6 K, Crystal | 0.05809
291.2 K, Crystal | 0.06948
294.3 K, Crystal | 0.08957
297.3 K, Crystal | 0.1161
298.2 K, Crystal | 0.1223
299.2 K, Crystal | 0.1357
300.8 K, Crystal | 0.1543
301.9 K, Liquid | 0.1746
304.2 K, Liquid | 0.1989
304.9 K, Liquid | 0.2137
307.2 K, Liquid | 0.2422
310.3 K, Liquid | 0.2964
313.2 K, Liquid | 0.3477
314.4 K, Liquid | 0.3671
316.3 K, Liquid | 0.4044
317.5 K, Liquid | 0.4335
319.3 K, Liquid | 0.4827
320.6 K, Liquid | 0.507
322.4 K, Liquid | 0.5742
325.3 K, Liquid | 0.6696
328.2 K, Liquid | 0.7835
331.3 K, Liquid | 0.8879
332.3 K, Liquid | 0.9409
335.3 K, Liquid | 1.1

Settings | Normal melting temperature [°C]
[2], Crystal | 28.2

Brc1ccccc1 [bromobenzene]
[2], Liquid
Settings | vapor or sublimation pressure [kPa]
276.4 K | 0.1345
278.3 K | 0.1534
282.2 K | 0.1957
283.1 K | 0.2092
285.4 K | 0.2487
286.2 K | 0.2532
288.3 K | 0.2954
289.3 K | 0.3211
291.4 K | 0.3549
292.4 K | 0.3794
293.2 K | 0.4046
294.4 K | 0.4413
295.5 K | 0.4596
297.4 K | 0.5225
300.4 K | 0.6407
303.4 K | 0.7604

Cc1cccc(Br)c1 [1-bromo-3-methylbenzene]
[2], Liquid
Settings | vapor or sublimation pressure
274.2 K | 0.02006 kPa
276.2 K | 0.0234 kPa
278.2 K | 0.02748 kPa
278.3 K | 0.02776 kPa
279.2 K | 0.0289 kPa
280.3 K | 0.03259 kPa
281.3 K | 0.0351 kPa
282.2 K | 0.03686 kPa
282.5 K | 0.03833 kPa
284.2 K | 0.0421 kPa and 0.04171 kPa
287.2 K | 0.05299 kPa
287.3 K | 0.0526 kPa
290.2 K | 0.06611 kPa
290.4 K | 0.06761 kPa
293.2 K | 0.08432 kPa
293.6 K | 0.08569 kPa
296.2 K | 0.09718 kPa
296.7 K | 0.1039 kPa
299.2 K | 0.1199 kPa
299.8 K | 0.1279 kPa
302.2 K | 0.1478 kPa
302.8 K | 0.1548 kPa
305.2 K | 0.18 kPa
308.2 K | 0.2084 kPa and 0.2115 kPa and 0.2068 kPa

Cc1cccc(C)c1I [1-iodo-2,6-dimethylbenzene]
[2], Liquid
Settings | vapor or sublimation pressure [kPa]
284.5 K | 0.005
288.4 K | 0.00709
291.6 K | 0.00925
296.5 K | 0.014
298.4 K | 0.01572
299.5 K | 0.01696
301.5 K | 0.01972
303.3 K | 0.02303
306.4 K | 0.02867
308.3 K | 0.03267
311.4 K | 0.04222
313.6 K | 0.04835
316.4 K | 0.05818
318.4 K | 0.06657
321.2 K | 0.08028
323.4 K | 0.09228
326.3 K | 0.1123
328.5 K | 0.1277
331.3 K | 0.1526
333.4 K | 0.1721

Cc1cccc(C)c1Br [2-bromo-1,3-dimethylbenzene]
[2], Liquid
Settings | vapor or sublimation pressure
274.2 K | 0.00695 kPa
276.2 K | 0.0084 kPa
278.3 K | 0.01013 kPa
281.2 K | 0.01282 kPa
284.2 K | 0.0161 kPa
287.2 K | 0.02071 kPa
290.2 K | 0.02551 kPa
293.3 K | 0.0317 kPa and 0.03214 kPa
293.4 K | 0.03244 kPa
296.3 K | 0.03998 kPa
299.3 K | 0.04922 kPa
302.2 K | 0.06313 kPa
305.3 K | 0.07815 kPa

Cc1ccccc1Br [2-bromotoluene]
[2], Liquid
Settings | vapor or sublimation pressure
281.2 K | 0.04946 kPa
284.2 K | 0.06067 kPa
285.2 K | 0.06568 kPa
287.2 K | 0.07592 kPa and 0.07526 kPa
290.2 K | 0.09238 kPa
293.2 K | 0.1131 kPa
296.2 K | 0.1381 kPa
299.2 K | 0.1684 kPa
302.2 K | 0.2053 kPa
305.2 K | 0.25 kPa
308.2 K | 0.3008 kPa [middle of 4 runs]
313.1 K | 0.3903 kPa [middle of 6 runs]
